{"source": "PubChem BioAssay (NCI)", "experiment_in_all_cases": "NCI-60 cell line screen, 384-well format", "key": {"TK-10 renal": {"system": "TK-10 renal"}, "OVCAR-3 ovarian": {"system": "OVCAR-3 ovarian"}, "UO-31 renal": {"system": "UO-31 renal"}, "IGROV1 ovarian": {"system": "IGROV1 ovarian"}, "DU-145 prostate": {"system": "DU-145 prostate"}, "A549 NSCLC": {"system": "A549 NSCLC"}, "PC-3 prostate": {"system": "PC-3 prostate"}, "SN12C renal": {"system": "SN12C renal"}, "SF-295 CNS": {"system": "SF-295 CNS"}, "U251 glioblastoma": {"system": "U251 glioblastoma"}, "MDA-MB-468 breast": {"system": "MDA-MB-468 breast"}, "OVCAR-5 ovarian": {"system": "OVCAR-5 ovarian"}, "SR leukemia": {"system": "SR leukemia"}, "HOP-92 NSCLC": {"system": "HOP-92 NSCLC"}, "SK-MEL-2 melanoma": {"system": "SK-MEL-2 melanoma"}, "MCF7 breast": {"system": "MCF7 breast"}, "RPMI-8226 leukemia": {"system": "RPMI-8226 leukemia"}, "LOX IMVI melanoma": {"system": "LOX IMVI melanoma"}, "T-47D breast": {"system": "T-47D breast"}, "HOP-62 NSCLC": {"system": "HOP-62 NSCLC"}, "HL-60(TB) leukemia": {"system": "HL-60(TB) leukemia"}, "SW-620 colon": {"system": "SW-620 colon"}, "NCI-H322M lung": {"system": "NCI-H322M lung"}, "NCI-H23 lung": {"system": "NCI-H23 lung"}, "NCI-H522 lung": {"system": "NCI-H522 lung"}, "MOLT-4 leukemia": {"system": "MOLT-4 leukemia"}, "SNB-19 CNS": {"system": "SNB-19 CNS"}, "HCT-116 colon": {"system": "HCT-116 colon"}, "A498 renal": {"system": "A498 renal"}, "MALME-3M melanoma": {"system": "MALME-3M melanoma"}, "SK-MEL-28 melanoma": {"system": "SK-MEL-28 melanoma"}, "UACC-62 melanoma": {"system": "UACC-62 melanoma"}, "RXF 393 renal": {"system": "RXF 393 renal"}, "KM12 colon": {"system": "KM12 colon"}, "SNB-75 CNS": {"system": "SNB-75 CNS"}, "HS 578T breast": {"system": "HS 578T breast"}, "SF-268 CNS": {"system": "SF-268 CNS"}, "SF-539 CNS": {"system": "SF-539 CNS"}, "HT29 colon": {"system": "HT29 colon"}, "MDA-MB-435 melanoma": {"system": "MDA-MB-435 melanoma"}, "SK-MEL-5 melanoma": {"system": "SK-MEL-5 melanoma"}, "K-562 leukemia": {"system": "K-562 leukemia"}, "BT-549 breast": {"system": "BT-549 breast"}, "EKVX NSCLC": {"system": "EKVX NSCLC"}, "CAKI-1 renal": {"system": "CAKI-1 renal"}, "NCI-H460 NSCLC": {"system": "NCI-H460 NSCLC"}, "CCRF-CEM leukemia": {"system": "CCRF-CEM leukemia"}}, "note": "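Abbreviation: GI50, concentration required for 50% inhibition of growth. TGI: concentration producing complete growth inhibition.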", "data": [{"compound": "O=C(/C=C/c1cccc(S(=O)(=O)Nc2ccccc2)c1)NO", "values": [{"measurement": "GI50", "setting": "TK-10 renal", "value": 445, "unit": "nM"}, {"measurement": "TGI", "setting": "TK-10 renal", "value": 2000, "unit": "nM"}, {"measurement": "GI50", "setting": "OVCAR-3 ovarian", "value": 299, "unit": "nM"}, {"measurement": "TGI", "setting": "OVCAR-3 ovarian", "value": 1280, "unit": "nM"}, {"measurement": "GI50", "setting": "UO-31 renal", "value": 1020, "unit": "nM"}, {"measurement": "TGI", "setting": "UO-31 renal", "value": 3170, "unit": "nM"}, {"measurement": "GI50", "setting": "IGROV1 ovarian", "value": 271, "unit": "nM"}, {"measurement": "TGI", "setting": "IGROV1 ovarian", "value": 781, "unit": "nM"}, {"measurement": "GI50", "setting": "DU-145 prostate", "value": 260, "unit": "nM"}, {"measurement": "TGI", "setting": "DU-145 prostate", "value": 793, "unit": "nM"}, {"measurement": "GI50", "setting": "A549 NSCLC", "value": 422, "unit": "nM"}, {"measurement": "TGI", "setting": "A549 NSCLC", "value": 1590, "unit": "nM"}, {"measurement": "GI50", "setting": "PC-3 prostate", "value": 433, "unit": "nM"}, {"measurement": "TGI", "setting": "PC-3 prostate", "value": 1760, "unit": "nM"}, {"measurement": "GI50", "setting": "SN12C renal", "value": 853, "unit": "nM"}, {"measurement": "TGI", "setting": "SN12C renal", "value": 2250, "unit": "nM"}, {"measurement": "GI50", "setting": "SF-295 CNS", "value": 607, "unit": "nM"}, {"measurement": "TGI", "setting": "SF-295 CNS", "value": 1910, "unit": "nM"}, {"measurement": "GI50", "setting": "U251 glioblastoma", "value": 430, "unit": "nM"}, {"measurement": "TGI", "setting": "U251 glioblastoma", "value": 1340, "unit": "nM"}, {"measurement": "GI50", "setting": "MDA-MB-468 breast", "value": 196, "unit": "nM"}, {"measurement": "TGI", "setting": "MDA-MB-468 breast", "value": 487, "unit": "nM"}, {"measurement": "GI50", "setting": "OVCAR-5 ovarian", "value": 369, "unit": "nM"}, {"measurement": "TGI", "setting": "OVCAR-5 ovarian", "value": 1480, "unit": "nM"}, {"measurement": "GI50", "setting": "SR leukemia", "value": 88.4, "unit": "nM"}, {"measurement": "TGI", "setting": "SR leukemia", "value": 204, "unit": "nM"}, {"measurement": "GI50", "setting": "HOP-92 NSCLC", "value": 343, "unit": "nM"}, {"measurement": "TGI", "setting": "HOP-92 NSCLC", "value": 1070, "unit": "nM"}, {"measurement": "GI50", "setting": "SK-MEL-2 melanoma", "value": 265, "unit": "nM"}, {"measurement": "TGI", "setting": "SK-MEL-2 melanoma", "value": 558, "unit": "nM"}, {"measurement": "GI50", "setting": "MCF7 breast", "value": 264, "unit": "nM"}, {"measurement": "TGI", "setting": "MCF7 breast", "value": 1300, "unit": "nM"}, {"measurement": "GI50", "setting": "RPMI-8226 leukemia", "value": 95.7, "unit": "nM"}, {"measurement": "TGI", "setting": "RPMI-8226 leukemia", "value": 221, "unit": "nM"}, {"measurement": "GI50", "setting": "LOX IMVI melanoma", "value": 385, "unit": "nM"}, {"measurement": "TGI", "setting": "LOX IMVI melanoma", "value": 1410, "unit": "nM"}, {"measurement": "GI50", "setting": "T-47D breast", "value": 208, "unit": "nM"}, {"measurement": "TGI", "setting": "T-47D breast", "value": 547, "unit": "nM"}, {"measurement": "GI50", "setting": "HOP-62 NSCLC", "value": 498, "unit": "nM"}, {"measurement": "TGI", "setting": "HOP-62 NSCLC", "value": 2330, "unit": "nM"}, {"measurement": "GI50", "setting": "HL-60(TB) leukemia", "value": 223, "unit": "nM"}, {"measurement": "TGI", "setting": "HL-60(TB) leukemia", "value": 373, "unit": "nM"}, {"measurement": "GI50", "setting": "SW-620 colon", "value": 188, "unit": "nM"}, {"measurement": "TGI", "setting": "SW-620 colon", "value": 436, "unit": "nM"}, {"measurement": "GI50", "setting": "NCI-H322M lung", "value": 465, "unit": "nM"}, {"measurement": "TGI", "setting": "NCI-H322M lung", "value": 1840, "unit": "nM"}, {"measurement": "GI50", "setting": "NCI-H23 lung", "value": 407, "unit": "nM"}, {"measurement": "TGI", "setting": "NCI-H23 lung", "value": 1590, "unit": "nM"}, {"measurement": "GI50", "setting": "NCI-H522 lung", "value": 155, "unit": "nM"}, {"measurement": "TGI", "setting": "NCI-H522 lung", "value": 610, "unit": "nM"}, {"measurement": "GI50", "setting": "MOLT-4 leukemia", "value": 137, "unit": "nM"}, {"measurement": "TGI", "setting": "MOLT-4 leukemia", "value": 267, "unit": "nM"}, {"measurement": "GI50", "setting": "SNB-19 CNS", "value": 853, "unit": "nM"}, {"measurement": "TGI", "setting": "SNB-19 CNS", "value": 2240, "unit": "nM"}, {"measurement": "GI50", "setting": "HCT-116 colon", "value": 205, "unit": "nM"}, {"measurement": "TGI", "setting": "HCT-116 colon", "value": 630, "unit": "nM"}, {"measurement": "GI50", "setting": "A498 renal", "value": 494, "unit": "nM"}, {"measurement": "TGI", "setting": "A498 renal", "value": 1450, "unit": "nM"}, {"measurement": "GI50", "setting": "MALME-3M melanoma", "value": 184, "unit": "nM"}, {"measurement": "TGI", "setting": "MALME-3M melanoma", "value": 450, "unit": "nM"}, {"measurement": "GI50", "setting": "SK-MEL-28 melanoma", "value": 565, "unit": "nM"}, {"measurement": "TGI", "setting": "SK-MEL-28 melanoma", "value": 1890, "unit": "nM"}, {"measurement": "GI50", "setting": "UACC-62 melanoma", "value": 217, "unit": "nM"}, {"measurement": "TGI", "setting": "UACC-62 melanoma", "value": 597, "unit": "nM"}, {"measurement": "GI50", "setting": "RXF 393 renal", "value": 87.7, "unit": "nM"}, {"measurement": "TGI", "setting": "RXF 393 renal", "value": 365, "unit": "nM"}, {"measurement": "GI50", "setting": "KM12 colon", "value": 128, "unit": "nM"}, {"measurement": "TGI", "setting": "KM12 colon", "value": 1720, "unit": "nM"}, {"measurement": "GI50", "setting": "SNB-75 CNS", "value": 258, "unit": "nM"}, {"measurement": "TGI", "setting": "SNB-75 CNS", "value": 796, "unit": "nM"}, {"measurement": "GI50", "setting": "HS 578T breast", "value": 474, "unit": "nM"}, {"measurement": "TGI", "setting": "HS 578T breast", "value": 1600, "unit": "nM"}, {"measurement": "GI50", "setting": "SF-268 CNS", "value": 517, "unit": "nM"}, {"measurement": "TGI", "setting": "SF-268 CNS", "value": 1660, "unit": "nM"}, {"measurement": "GI50", "setting": "SF-539 CNS", "value": 616, "unit": "nM"}, {"measurement": "TGI", "setting": "SF-539 CNS", "value": 2650, "unit": "nM"}, {"measurement": "GI50", "setting": "HT29 colon", "value": 282, "unit": "nM"}, {"measurement": "TGI", "setting": "HT29 colon", "value": 918, "unit": "nM"}, {"measurement": "GI50", "setting": "MDA-MB-435 melanoma", "value": 492, "unit": "nM"}, {"measurement": "TGI", "setting": "MDA-MB-435 melanoma", "value": 1450, "unit": "nM"}, {"measurement": "GI50", "setting": "SK-MEL-5 melanoma", "value": 155, "unit": "nM"}, {"measurement": "TGI", "setting": "SK-MEL-5 melanoma", "value": 393, "unit": "nM"}, {"measurement": "GI50", "setting": "K-562 leukemia", "value": 188, "unit": "nM"}, {"measurement": "TGI", "setting": "K-562 leukemia", "value": 394, "unit": "nM"}, {"measurement": "GI50", "setting": "BT-549 breast", "value": 925, "unit": "nM"}, {"measurement": "TGI", "setting": "BT-549 breast", "value": 2820, "unit": "nM"}, {"measurement": "GI50", "setting": "EKVX NSCLC", "value": 1810, "unit": "nM"}, {"measurement": "TGI", "setting": "EKVX NSCLC", "value": 8530, "unit": "nM"}, {"measurement": "GI50", "setting": "CAKI-1 renal", "value": 218, "unit": "nM"}, {"measurement": "TGI", "setting": "CAKI-1 renal", "value": 885, "unit": "nM"}, {"measurement": "GI50", "setting": "NCI-H460 NSCLC", "value": 350, "unit": "nM"}, {"measurement": "TGI", "setting": "NCI-H460 NSCLC", "value": 1500, "unit": "nM"}, {"measurement": "GI50", "setting": "CCRF-CEM leukemia", "value": 134, "unit": "nM"}, {"measurement": "TGI", "setting": "CCRF-CEM leukemia", "value": 263, "unit": "nM"}]}]}
